Measured values published in ChEMBL document CHEMBL1201862, “PubChem BioAssay data set” (2004).
The source made the active and inactive calls.

What was measured:
[1] = target: Large T antigen (Simian virus 40, UniProt P03070); type: functional, Betapolyomavirus macacae;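 also: Confirmatory-stage PubChem screen for compounds that inhibit SV40 T antigen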
[2] = target: T1, Heat shock factor protein 1 (Mus musculus, UniProt P38532); assay: enhancement of HSF1-driven luciferase signal – cell-based, NIH3T3, luminescence, dose retest, confirmation (AID 435004); type: functional;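 also: stress induced by proteasome inhibitor MG132 added 30 min after compound; luciferase reporter driven by HSF1 response element in NIH3T3 cells; actives raise luminescence as potentiators of the MG132 stress response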
T1 sequence (P38532 whole entry): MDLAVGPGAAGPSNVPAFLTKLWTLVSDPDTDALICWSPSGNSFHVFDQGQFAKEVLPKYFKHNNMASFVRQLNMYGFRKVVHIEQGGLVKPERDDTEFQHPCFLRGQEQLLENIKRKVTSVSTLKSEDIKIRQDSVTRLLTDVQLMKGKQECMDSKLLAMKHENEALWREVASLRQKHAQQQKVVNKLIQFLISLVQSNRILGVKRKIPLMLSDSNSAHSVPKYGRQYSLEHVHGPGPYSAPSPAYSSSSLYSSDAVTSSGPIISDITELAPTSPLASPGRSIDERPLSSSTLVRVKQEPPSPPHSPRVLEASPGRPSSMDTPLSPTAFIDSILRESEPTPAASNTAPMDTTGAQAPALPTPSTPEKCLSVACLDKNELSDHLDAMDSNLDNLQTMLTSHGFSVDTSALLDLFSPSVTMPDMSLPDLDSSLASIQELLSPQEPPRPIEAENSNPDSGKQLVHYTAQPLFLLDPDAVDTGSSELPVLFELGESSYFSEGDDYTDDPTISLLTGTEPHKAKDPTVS

[3] = target: Genome polyprotein (dengue virus type 2, UniProt P29990); assay: flavivirus cap methylation enzyme inhibition – biochemical, confirmation dose response, primary screen (AID 588689); type: functional
Genome polyprotein, sequence (P29990 2492-3391 limits assumed): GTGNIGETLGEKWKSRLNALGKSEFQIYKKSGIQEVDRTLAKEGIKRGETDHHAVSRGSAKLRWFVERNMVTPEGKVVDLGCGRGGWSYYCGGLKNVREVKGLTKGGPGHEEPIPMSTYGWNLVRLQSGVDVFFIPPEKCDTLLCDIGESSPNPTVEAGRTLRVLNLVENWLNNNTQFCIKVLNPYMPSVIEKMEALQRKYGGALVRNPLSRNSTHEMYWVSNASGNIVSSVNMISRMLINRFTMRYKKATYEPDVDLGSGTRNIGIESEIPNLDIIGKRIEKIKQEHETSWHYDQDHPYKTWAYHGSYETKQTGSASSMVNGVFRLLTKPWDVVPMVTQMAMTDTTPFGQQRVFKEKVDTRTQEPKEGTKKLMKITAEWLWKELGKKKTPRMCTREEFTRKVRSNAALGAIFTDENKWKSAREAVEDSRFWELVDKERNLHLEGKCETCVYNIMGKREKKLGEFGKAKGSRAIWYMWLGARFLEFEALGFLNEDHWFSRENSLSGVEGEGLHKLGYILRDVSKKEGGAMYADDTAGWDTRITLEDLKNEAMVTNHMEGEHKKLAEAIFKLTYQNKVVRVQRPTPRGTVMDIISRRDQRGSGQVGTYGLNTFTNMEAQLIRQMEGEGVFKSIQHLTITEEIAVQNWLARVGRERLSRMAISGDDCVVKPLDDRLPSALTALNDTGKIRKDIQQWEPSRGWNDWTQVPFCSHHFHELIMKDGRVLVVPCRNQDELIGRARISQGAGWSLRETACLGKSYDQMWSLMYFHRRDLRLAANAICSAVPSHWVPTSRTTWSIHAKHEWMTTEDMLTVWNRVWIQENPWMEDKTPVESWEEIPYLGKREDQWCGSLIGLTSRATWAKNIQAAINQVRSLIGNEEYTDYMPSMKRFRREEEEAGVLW

[4] = target: Paired box protein Pax-8 (Homo sapiens, UniProt Q06710); assay: PAX8 transcriptional activity inhibition in RMG-I – RMG-I cells, luciferase, cherry-pick, dose response (AID 687027); type: functional, cell-based;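 also: luciferase reporter driven by Pax8 target thyroperoxidase promoter measured by SteadyGlo luminescence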
Paired box protein Pax-8, sequence (Q06710 whole entry): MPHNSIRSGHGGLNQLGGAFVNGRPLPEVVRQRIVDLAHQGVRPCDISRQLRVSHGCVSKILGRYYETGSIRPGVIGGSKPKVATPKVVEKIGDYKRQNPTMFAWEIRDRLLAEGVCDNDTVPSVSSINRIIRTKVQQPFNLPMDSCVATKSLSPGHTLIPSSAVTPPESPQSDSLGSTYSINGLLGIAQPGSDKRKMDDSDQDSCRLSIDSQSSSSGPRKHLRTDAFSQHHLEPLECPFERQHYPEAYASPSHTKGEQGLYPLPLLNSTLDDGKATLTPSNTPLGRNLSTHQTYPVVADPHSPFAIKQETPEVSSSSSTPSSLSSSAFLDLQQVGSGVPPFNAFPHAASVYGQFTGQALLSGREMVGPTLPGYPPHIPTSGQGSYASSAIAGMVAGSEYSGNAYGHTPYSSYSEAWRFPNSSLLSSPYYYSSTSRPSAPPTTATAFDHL

[5] = general cell-killing toxicity readout – plate reader, dry powder samples, cytotoxicity control for PAX8 inhibitor project, dose response (AID 743021); type: functional, cell-based
[6] = reduction of Shn3 3'UTR-driven luciferase in osteoblasts – cell-based, Clone20 osteoblasts, firefly luciferase, cherry-picked, dose response (AID 624132); type: functional;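 also: firefly luciferase luminescence from reporter carrying the Shn3 3'UTR in osteoblasts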
[7] = non-specific 3'UTR reporter inhibition in Clone20-Shn3RL – cell-based, Renilla luciferase, cherry-picked, counter-screen for Shn3 inhibitor project, dose response (AID 624133); type: functional
[8] = target: T2, Mannose-6-phosphate isomerase (Homo sapiens, UniProt P34949); assay: MPI inhibition at elevated mannose 6-phosphate – biochemical, fluorescence intensity, high mannose 6-phosphate, primary screen (AID 1220)
T2 sequence (P34949 whole entry): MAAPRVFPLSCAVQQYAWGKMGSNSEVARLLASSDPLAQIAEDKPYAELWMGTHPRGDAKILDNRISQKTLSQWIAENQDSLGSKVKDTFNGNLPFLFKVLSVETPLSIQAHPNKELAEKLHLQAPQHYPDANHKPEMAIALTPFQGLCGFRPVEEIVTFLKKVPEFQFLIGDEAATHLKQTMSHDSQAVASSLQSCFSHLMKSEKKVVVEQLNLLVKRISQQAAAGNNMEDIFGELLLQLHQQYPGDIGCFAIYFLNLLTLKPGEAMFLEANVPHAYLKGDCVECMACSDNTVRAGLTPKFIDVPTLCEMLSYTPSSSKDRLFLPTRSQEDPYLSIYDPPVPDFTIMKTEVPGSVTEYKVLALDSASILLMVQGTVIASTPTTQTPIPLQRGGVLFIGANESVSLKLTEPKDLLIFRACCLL

[9] = blockers of HIV-1 envelope-mediated cell-cell fusion – cherry-pick, dose response (AID 652057); type: functional, cell-based
[10] = blockers of HIV-1 ZM109 envelope-driven cell-cell fusion – HeLa effector, CEM target cells, luciferase, cherry-pick, dose response (AID 652058); type: functional, cell-based;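 also: luciferase signal from HIV-1 Env mediated cell-cell fusion of effector and target cells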
[11] = off-target signal loss in HeLa-CEM21 co-culture – HeLa F-luc CTL cells, cherry-picked, counter-screen for HIV-1 Env fusion inhibitor project, dose response (AID 652040); type: functional, cell-based;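 also: potency for signal decrease marking cytotoxic or nonspecific inhibition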
[12] = HIV-1 AD8 envelope cell-cell fusion blockers – cherry-pick, dose response (AID 652062); type: functional, cell-based;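 also: luciferase signal from cell-cell fusion driven by HIV-1 clade B AD8 Env; potency is for inhibitors of fusion seen as a drop in luminescence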
[13] = OVCAR8 cell viability loss – plate reader, dry powder samples, PAX8 project, dose response (AID 743197); type: functional, cell-based; conditions: OVCAR-8
[14] = Luminescence Cell-Based Dose Confirmation HTS to Identify Activators of 5'UTR Stem-Loop Driven Alpha-Synuclein mRNA Translation in H4 Neuroglioblastoma Cells. [Related pubchem assays: 1829 (Project Summary), 1814 (Primary HTS)]; type: functional
[15] = Luminescence Cell-Based Dose Response HTS to Identify Activators of Luciferase Translation or Activity in H4 […] Cells. [Related pubchem assays: 1829 (Project Summary), 1814 (Primary HTS)]; type: functional
[16] = test system: H4; assay: Luminescence Cell-Based Dose Response HTS to Identify Activators of 5'UTR Stem-Loop Driven Prion Protein mRNA Translation in H4 Neuroglioblastoma Cells. [Related pubchem assays: 1829 (Project Summary), 1814 (Primary HTS)]; type: functional; conditions: Homo sapiens
[17] = target: T3, Fatty acid synthase (Homo sapiens, UniProt P49327); assay: inhibition of human FAS-TE enzyme activity – biochemical, endpoint fluorescence intensity, uHTS hits, dose response (AID 624327); type: functional;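 also: fluorescence from hydrolysis of an O-methyl fluorescein acyl ester substrate by the enzyme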
T3 sequence (P49327 whole entry): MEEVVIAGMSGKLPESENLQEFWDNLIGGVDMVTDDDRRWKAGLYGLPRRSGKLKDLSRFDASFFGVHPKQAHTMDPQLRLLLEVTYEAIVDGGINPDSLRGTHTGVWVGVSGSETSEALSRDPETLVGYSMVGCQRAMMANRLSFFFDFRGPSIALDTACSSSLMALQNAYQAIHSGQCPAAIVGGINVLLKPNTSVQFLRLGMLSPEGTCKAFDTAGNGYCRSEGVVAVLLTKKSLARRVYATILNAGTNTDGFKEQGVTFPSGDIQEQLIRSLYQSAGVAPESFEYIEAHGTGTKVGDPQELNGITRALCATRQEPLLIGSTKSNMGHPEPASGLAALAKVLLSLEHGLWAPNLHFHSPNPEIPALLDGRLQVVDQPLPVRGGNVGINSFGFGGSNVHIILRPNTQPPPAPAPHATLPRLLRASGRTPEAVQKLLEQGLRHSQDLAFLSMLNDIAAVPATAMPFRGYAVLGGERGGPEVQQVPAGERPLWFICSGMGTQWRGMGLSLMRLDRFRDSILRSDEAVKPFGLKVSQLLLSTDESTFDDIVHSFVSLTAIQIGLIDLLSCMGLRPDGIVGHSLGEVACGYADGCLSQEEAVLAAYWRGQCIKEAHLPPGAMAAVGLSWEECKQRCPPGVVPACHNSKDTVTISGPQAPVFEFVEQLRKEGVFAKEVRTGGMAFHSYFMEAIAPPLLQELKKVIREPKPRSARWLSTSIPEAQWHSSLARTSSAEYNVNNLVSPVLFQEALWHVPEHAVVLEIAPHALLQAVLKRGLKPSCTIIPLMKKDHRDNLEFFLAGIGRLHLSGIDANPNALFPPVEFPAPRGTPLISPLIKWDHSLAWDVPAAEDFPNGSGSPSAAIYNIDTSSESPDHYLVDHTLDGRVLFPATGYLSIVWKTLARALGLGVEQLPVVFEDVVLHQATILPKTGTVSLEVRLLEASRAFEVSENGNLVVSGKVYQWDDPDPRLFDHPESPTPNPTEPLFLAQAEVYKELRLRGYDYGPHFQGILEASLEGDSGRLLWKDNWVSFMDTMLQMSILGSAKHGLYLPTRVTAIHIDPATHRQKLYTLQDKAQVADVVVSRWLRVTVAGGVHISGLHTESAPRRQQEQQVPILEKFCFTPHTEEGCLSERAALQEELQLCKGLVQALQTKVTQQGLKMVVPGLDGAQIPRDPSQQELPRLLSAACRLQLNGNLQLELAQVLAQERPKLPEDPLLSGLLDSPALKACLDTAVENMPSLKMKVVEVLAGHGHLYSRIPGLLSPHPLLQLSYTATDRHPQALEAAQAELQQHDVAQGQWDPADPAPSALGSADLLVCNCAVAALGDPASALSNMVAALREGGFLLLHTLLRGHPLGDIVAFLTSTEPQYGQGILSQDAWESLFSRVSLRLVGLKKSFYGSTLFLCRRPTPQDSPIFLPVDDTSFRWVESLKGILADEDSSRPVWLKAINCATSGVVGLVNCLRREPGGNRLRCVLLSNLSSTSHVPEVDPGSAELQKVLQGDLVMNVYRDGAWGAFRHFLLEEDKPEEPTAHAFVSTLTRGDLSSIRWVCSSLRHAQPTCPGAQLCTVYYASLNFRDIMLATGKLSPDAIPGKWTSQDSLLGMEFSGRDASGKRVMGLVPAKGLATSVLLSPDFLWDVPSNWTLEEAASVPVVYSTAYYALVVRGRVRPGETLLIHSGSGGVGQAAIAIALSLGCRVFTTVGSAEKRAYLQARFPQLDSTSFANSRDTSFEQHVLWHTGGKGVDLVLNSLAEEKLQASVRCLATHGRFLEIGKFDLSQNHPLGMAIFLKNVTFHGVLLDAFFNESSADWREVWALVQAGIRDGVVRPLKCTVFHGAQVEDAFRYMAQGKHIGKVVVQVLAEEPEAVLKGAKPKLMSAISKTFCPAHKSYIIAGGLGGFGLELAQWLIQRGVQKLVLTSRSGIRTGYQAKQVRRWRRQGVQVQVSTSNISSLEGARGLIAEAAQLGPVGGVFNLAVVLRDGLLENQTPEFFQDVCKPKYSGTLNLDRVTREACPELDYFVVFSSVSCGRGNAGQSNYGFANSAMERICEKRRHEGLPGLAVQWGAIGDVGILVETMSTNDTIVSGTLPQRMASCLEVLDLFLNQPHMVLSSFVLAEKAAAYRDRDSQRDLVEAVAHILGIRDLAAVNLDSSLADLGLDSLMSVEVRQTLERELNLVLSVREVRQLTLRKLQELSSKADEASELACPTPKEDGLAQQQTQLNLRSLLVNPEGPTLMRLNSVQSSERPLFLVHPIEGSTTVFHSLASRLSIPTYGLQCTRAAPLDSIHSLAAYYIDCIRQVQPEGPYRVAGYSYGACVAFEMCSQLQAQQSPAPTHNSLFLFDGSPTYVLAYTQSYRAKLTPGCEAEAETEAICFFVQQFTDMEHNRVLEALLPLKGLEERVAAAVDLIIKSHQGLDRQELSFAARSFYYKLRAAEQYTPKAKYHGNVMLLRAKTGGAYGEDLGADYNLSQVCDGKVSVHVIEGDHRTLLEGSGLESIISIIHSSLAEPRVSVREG

[18] = target: T3, Fatty acid synthase; assay: inhibition of human FAS-TE enzyme activity – biochemical, kinetic fluorescence intensity, dose response (AID 624326); type: functional;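 also: rate of fluorescence rise from hydrolysis of a fluorogenic O-methyl fluorescein ester substrate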
[19] = target: T4, Leucine aminopeptidase (Plasmodium falciparum 3D7, UniProt Q8IL11); assay: P. falciparum M17LAP inhibitors, primary screen, biochemical, fluorogenic H-Leu-NHMec substrate, 1536-well (AID 1619); type: functional
T4 sequence (Q8IL11 whole entry): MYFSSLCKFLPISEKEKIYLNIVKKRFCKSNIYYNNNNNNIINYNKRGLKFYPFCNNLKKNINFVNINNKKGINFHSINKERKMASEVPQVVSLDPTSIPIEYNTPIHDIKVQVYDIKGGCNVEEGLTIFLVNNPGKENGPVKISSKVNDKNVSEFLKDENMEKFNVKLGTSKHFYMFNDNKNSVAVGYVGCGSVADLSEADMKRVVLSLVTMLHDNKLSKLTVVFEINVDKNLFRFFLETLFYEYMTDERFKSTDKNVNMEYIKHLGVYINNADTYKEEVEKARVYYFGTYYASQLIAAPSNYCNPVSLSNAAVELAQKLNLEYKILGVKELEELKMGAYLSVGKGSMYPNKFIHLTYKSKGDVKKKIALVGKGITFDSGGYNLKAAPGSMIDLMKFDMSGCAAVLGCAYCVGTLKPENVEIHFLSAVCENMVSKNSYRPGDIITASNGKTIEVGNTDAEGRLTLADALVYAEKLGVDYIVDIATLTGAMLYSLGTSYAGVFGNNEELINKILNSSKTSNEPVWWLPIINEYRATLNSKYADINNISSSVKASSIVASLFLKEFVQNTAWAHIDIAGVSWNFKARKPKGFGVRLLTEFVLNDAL

[20] = P. falciparum Dd2 growth inhibitors, dose response, SYBR Green, cherry-picked samples (AID 1159567); type: functional, cell-based
[21] = target: T5, Corticotropin-releasing factor receptor 2/Corticotropin-releasing factor-binding protein (Homo sapiens, UniProt P24387+Q13324); assay: Dose Response confirmation of uHTS hits for small molecule antagonists of the CRF-binding protein and CRF-R2 receptor complex.; type: functional; conditions: read-out: IC50_Mean
T5 sequence (Q13324 whole entry): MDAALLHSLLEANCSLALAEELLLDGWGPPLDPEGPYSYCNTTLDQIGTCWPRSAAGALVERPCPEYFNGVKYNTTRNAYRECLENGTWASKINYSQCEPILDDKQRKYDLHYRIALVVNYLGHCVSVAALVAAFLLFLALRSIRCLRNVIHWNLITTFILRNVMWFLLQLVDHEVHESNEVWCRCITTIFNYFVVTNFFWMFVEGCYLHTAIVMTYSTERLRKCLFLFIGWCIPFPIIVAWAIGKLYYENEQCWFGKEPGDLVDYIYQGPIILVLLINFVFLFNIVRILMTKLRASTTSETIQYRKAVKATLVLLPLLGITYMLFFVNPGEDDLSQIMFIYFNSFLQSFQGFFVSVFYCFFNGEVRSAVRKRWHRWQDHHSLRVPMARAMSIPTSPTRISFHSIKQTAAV
T5 sequence (P24387 whole entry): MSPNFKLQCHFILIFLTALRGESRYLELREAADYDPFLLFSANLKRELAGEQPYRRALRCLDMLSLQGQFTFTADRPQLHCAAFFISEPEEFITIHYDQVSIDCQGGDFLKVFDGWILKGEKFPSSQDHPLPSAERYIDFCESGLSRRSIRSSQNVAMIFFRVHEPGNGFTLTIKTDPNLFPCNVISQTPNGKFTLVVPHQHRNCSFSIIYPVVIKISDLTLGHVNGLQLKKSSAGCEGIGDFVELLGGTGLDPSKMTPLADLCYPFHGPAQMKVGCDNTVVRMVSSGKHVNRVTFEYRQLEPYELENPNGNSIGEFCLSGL

[22] = target: T5, Corticotropin-releasing factor receptor 2/Corticotropin-releasing factor-binding protein; assay: activators of CRF receptor 2 with binding protein – uHTS hits, confirmation (AID 602473); type: functional; conditions: read-out: EC50_Mean

Large T antigen, sequence (P03070 whole entry): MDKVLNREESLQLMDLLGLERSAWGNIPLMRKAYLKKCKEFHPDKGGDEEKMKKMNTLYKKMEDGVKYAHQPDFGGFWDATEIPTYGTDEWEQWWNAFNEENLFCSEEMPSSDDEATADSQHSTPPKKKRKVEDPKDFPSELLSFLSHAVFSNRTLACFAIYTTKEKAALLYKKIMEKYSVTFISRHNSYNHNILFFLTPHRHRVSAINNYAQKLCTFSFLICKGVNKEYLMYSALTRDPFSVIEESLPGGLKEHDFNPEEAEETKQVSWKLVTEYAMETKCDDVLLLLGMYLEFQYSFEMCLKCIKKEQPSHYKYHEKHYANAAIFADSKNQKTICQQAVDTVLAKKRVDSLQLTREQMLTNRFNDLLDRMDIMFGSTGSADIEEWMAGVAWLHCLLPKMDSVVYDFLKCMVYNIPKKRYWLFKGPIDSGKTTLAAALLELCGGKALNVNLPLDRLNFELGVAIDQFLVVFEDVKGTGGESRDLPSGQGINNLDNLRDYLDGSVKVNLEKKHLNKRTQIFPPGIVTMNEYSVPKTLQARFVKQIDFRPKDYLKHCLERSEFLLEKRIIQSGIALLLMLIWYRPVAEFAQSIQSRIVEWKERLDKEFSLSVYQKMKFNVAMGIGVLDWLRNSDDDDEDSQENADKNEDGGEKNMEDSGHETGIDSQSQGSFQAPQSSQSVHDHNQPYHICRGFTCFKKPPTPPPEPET

O=C(CS(=O)(=O)c1ccccc1)c1cc2cc(F)ccc2oc1=O
IC50 [1]: 62.8 µM (active) | EC50 [2]: > 260 µM (inactive) | IC50 [3]: > 100 µM (active)

CCCNC(=O)Nc1ccc2c(c1)OC[C@@H](C)N(Cc1ccc(-c3ccccn3)cc1)C[C@@H](C)[C@H](OC)CN(C)C2=O
AC50 [4]: 30.1 µM (active) | AC50 [5]: 41.7 µM (active)

CCCCCCN1C[C@H](n2cc(-c3ccc(F)cc3)nn2)[C@@H](O)C[C@@H]1c1ccc(Cl)cc1
AC50 [6]: 10.3 µM (active) | AC50 [7]: 25.8 µM (active)

COCCN1C(=O)Cc2c1nc(N)c1c(N)nc(N3CCN(c4ccc(F)cc4)CC3)c(C#N)c21
IC50 [8]: > 50 µM (not active)

CC1(Cc2ccc(Cl)cc2)C(=O)Nc2ccc(S(=O)(=O)NC3CCCCC3)cc21 (centres undefined)
AC50 [9]: 0.396 µM (active) | AC50 [10]: 1.12 µM (active) | AC50 [11]: 1.04 µM (active) | AC50 [12]: 0.674 µM (active)

Cc1nc2nc(-c3cccs3)cn2nc1C
IC50 [3]: 17.6 µM (active)

C[C@@H]1CCCCO[C@@H](CN(C)Cc2ccccc2)[C@H](C)CN([C@H](C)CO)C(=O)c2cc(NC(=O)Nc3ccc(C(F)(F)F)cc3)ccc2O1
AC50 [4]: 4.61 µM (active) | AC50 [13]: > 70 µM (inactive)

COc1ccc(OC)c(S(=O)(=O)ON2C(=O)c3ccccc3C2=O)c1
EC50 [14]: > 120 µM (not active) | EC50 [15]: > 120 µM (not active) | EC50 [16]: > 120 µM (not active) | IC50 [17]: 3.72 µM (active) | IC50 [18]: 3.19 µM (active)

COc1cccc(/C=C2\Oc3cc(OCC(=O)N4Cc5ccccc5C[C@H]4C(=O)O)ccc3C2=O)c1
IC50 [3]: 43.4 µM (active)

O=C(CN1C(=O)NC2(CCCCCC2)C1=O)Nc1ccc(Cl)c([N+](=O)[O-])c1
IC50 [17]: 8.92 µM (active) | IC50 [18]: 5.92 µM (active)

COC(=O)C1(C(=O)OC)C[C@H](c2ccc(OC)cc2)N(Cc2ccccc2OC)[C@@H]1c1ccccc1
AC50 [9]: 1.37 µM (active) | AC50 [10]: 1.58 µM (active) | AC50 [11]: 2.48 µM (active) | AC50 [12]: 8.22 µM (active)

COc1ccc([N+](=O)[O-])cc1NC(=O)C(C)NNC(=O)c1cccc([N+](=O)[O-])c1 (centres undefined)
IC50 [17]: 12.7 µM (active) | IC50 [18]: 10.7 µM (active)

CCOC(=O)c1c(-c2ccc(C)c(C)c2)csc1NC(=O)C1CC=CCC1C(=O)O (centres undefined)
IC50 [19]: 10.3 µM (active) | IC50 [3]: 43.5 µM (active)

N#C/C(=C\c1c(N2CCC(C(N)=O)CC2)nc2ccccn2c1=O)S(=O)(=O)c1ccc(Cl)cc1
IC50 [17]: 17.1 µM (active) | IC50 [18]: 6.07 µM (active)

CCCNC(=O)N1CCC2(CC1)CN(Cc1ccc(F)cc1)[C@@H](CO)c1[nH]c3cc(OC)ccc3c12
AC50 [20]: 5.11 µM (active)

CCCC12CN(C(=O)c3ccc([N+](=O)[O-])cc3)CC(C)(CN(C(=O)c3ccc([N+](=O)[O-])cc3)C1)C2=O
IC50 [21]: > 47.1 µM (inactive) | EC50 [22]: > 53 µM (inactive) | IC50 [17]: 9.85 µM (active) | IC50 [18]: 12.9 µM (active)

Cc1cc(=O)oc2c3c(cc(OCC(=O)Nc4ccc(CCO)cc4)c12)OC(C)(C)CC3
AC50 [6]: > 70 µM (inactive) | AC50 [7]: > 70 µM (inactive)

COc1ccccc1/C=C(\NC(=O)c1ccc(OC)c(OC)c1)C(=O)Nc1cccc([N+](=O)[O-])c1
IC50 [17]: 11.9 µM (active) | IC50 [18]: 16 µM (active)

CCOc1cc2c(C#N)c(N3CCCCC3)nc(N)c2c(N)n1
IC50 [8]: > 50 µM (not active)

COc1ccc(CN2CC3(CN(C(=O)Cc4ccccc4)C3)c3c([nH]c4cc(OC)ccc34)[C@H]2CO)cc1
AC50 [20]: 6.52 µM (active)
